“Also recorded” adds a separate entry of the source. Where two headings read alike, the source gives them in different places. No end group written: not given here.
Columns and labels:
A549 Dox-resistant cells [1] = assay: MTT cell viability, effect of CPPs on Dox cytotoxicity
Procedure: (§1) A549 cell line is derived from a drug-resistant human lung carcinoma tissue and adherent in culture. […] It was cultured in RPMI-1640 medium supplemented with 10% FBS, 100 units/ml penicillin, and 100 µg/ml streptomycin at 37 °C in 5% CO2 a humidified atmosphere. Moreover, to develop resistance, 0.1 µM Dox was added to the medium which was not toxic to the cells.
(§2) Cells were detached from flasks by trypsin and seeded in 96-well plates with a cell density of 1.5×10^4 cells/well (containing 200 μl/well of medium) and incubated for 24 hr at 37 °C in a humidified atmosphere of 5% CO2. The next day, cells were treated with different concentrations of peptides (15, 25, 50 μM), and incubated at the same condition for 24 hr. […] Data were collected from at least 3 independent experiments performed in triplicates and analyzed using the Graphpad Prism 7 software package.

A549 cells [2] = assay: Cellular uptake of FAM-labeled peptides by flow cytometry; details: different concentrations, comparison stated in discussion
Procedure: (§3) First, cells were seeded in 6-well plates (3×10^5 cells/well) and incubated for 24 hr. Then the medium was removed and cells were washed with PBS. FAM-labeled peptides and nano-complexes were added to wells and incubation was continued for 90 min. The old medium was removed and cells were washed with PBS three times and detached by trypsin/EDTA. Then 2 ml of medium was added to each well, and cells were centrifuged for 5 min, followed by washing three times with PBS and finally suspended in flow cytometry buffer to study the cellular uptake of FAM-labeled peptides and nano-complexes.

A549 Dox-resistant cells [3] = test system: A549 Dox-resistant cells
Procedure: as §1, §2

A549 cells [4] = test system: A549 cells
Procedure: as §3

## COc1cccc2c1C(=O)c1c(O)c3c(c(O)c1C2=O)C[C@@](O)(C(=O)CO)C[C@@H]3O[C@H]1C[C@H](N)[C@H](O)[C@H](C)O1 [Dox, Doxorubicin, reference compound]
A549 Dox-resistant cells [1]; Homo sapiens, A549, read-out: IC50 of Dox
  IC50: 20 µM

## N=C(N)NCCC[C@H](NC(=O)[C@H](CCCNC(=N)N)NC(=O)[C@H](CCCNC(=N)N)NC(=O)[C@H](CCCNC(=N)N)NC(=O)[C@H](CCCNC(=N)N)NC(=O)[C@H](CCCNC(=N)N)NC(=O)[C@H](CCCNC(=N)N)NC(=O)[C@H](CCCNC(=N)N)NC(=O)[C@H](CCCNC(=N)N)NC(=O)[C@@H](N)CCCNC(=N)N)C(=O)O [Peptide P7]
A549 cells [2]
  cellular uptake (discussion, method not specified): higher uptake efficacy
A549 Dox-resistant cells [1]; 25 µM and 50 µM peptide, 20 µM Dox, 24 hr (Figure 3a), MTT
  effect on Dox cytotoxicity: resulted in Dox cytotoxicity; also recorded: increased the Dox toxicity
A549 Dox-resistant cells [1]; 50 µM peptide, 20 µM Dox, after 48 hr (Figure 3b), MTT
  effect on cytotoxicity of Dox: increased the cytotoxicity of Dox
A549 Dox-resistant cells [1]; after 48 hr, peptide concentration not stated (abstract)
  effect on Dox cytotoxicity: increased Dox cytotoxicity

## KKKKKKKKKK [Peptide P8]
A549 Dox-resistant cells [3]
  effect on Dox cytotoxicity: increased Dox cytotoxicity
A549 cells [4]
  cellular uptake (discussion, method not specified): higher uptake compared with P8/E10 nano-complexes
A549 Dox-resistant cells [1]; 15 µM peptide 24 hr pre-treatment, then 20 µM Dox, 24 hr, MTT, at least 3 independent experiments in triplicates
  cell viability: 52.5%

Reference: publication PMC8087847, “Effects of self-assembled cell-penetrating peptides and their nano-complexes on ABCB1 expression and activity” (Iranian Journal of Basic Medical Sciences, 2021)
